Laboratory results from ChEMBL document CHEMBL1201862, “PubChem BioAssay data set” (2004).
The source made the active and inactive calls.

What was measured:
[1] = target: Neuropeptide Y receptor type 2 (Homo sapiens, UniProt P49146); assay: Fluorescence-based cell-based high-throughput dose response assay for agonists of NPY-Y2. [Related pubchem assays: 1703 (Screening assay (CNGC inhibitors).), 1359 (Screening assay (NPY-Y2 potentiators or agonists).), 1304 (Screening assay (NPY-Y1 potentiators or agonists).), 1710 (Screening assay (NPY-Y2 agonists).), 1791 (Summary AID.)]; type: functional
[2] = system: HEK293; assay: Fluorescence-based counterscreen for potentiators or agonists of NPY-Y2: cell-based high-throughput dose response assay to identify inhibitors of cyclic nucleotide gated ion channel (CNGC) activity. In this assay, the parental HEK293 cell line transfected with a cyclic-nucleotide gated ion channel (CNGC)-based cAMP sensor is used to measure inhibition of isoproterenol-induced CNGC activity by test compound.; type: functional; conditions: Homo sapiens;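 note: stimulus is 1 µM isoproterenol at EC100 plus PDE inhibitor Ro 20-1724 at 25 µM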
[3] = microbe, parasite or virus in culture; type: functional; conditions: Mycobacterium tuberculosis
[4] = target: Neuropeptide Y receptor type 1 (Homo sapiens, UniProt P25929); assay: Fluorescence-based counterscreen for agonists of NPY-Y2: cell-based high-throughput dose response assay for agonists of NPY-Y1.; type: functional
[5] = target: NS3 (Hepatitis C virus, UniProt A3EZJ3); assay: PubChem AID 2173; design: species or system Hepacivirus hominis
[6] = target: Induced myeloid leukemia cell differentiation protein Mcl-1 (Homo sapiens, UniProt Q07820); type: functional
[7] = target: T1, Heat shock factor protein 1 (Mus musculus, UniProt P38532); assay: enhancement of HSF1-driven luciferase signal – cell-based, NIH3T3, luminescence, dose retest, confirmation (AID 435004); type: functional;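 note: stress induced by proteasome inhibitor MG132 added 30 min after compound; luciferase reporter driven by HSF1 response element in NIH3T3 cells; actives raise luminescence as potentiators of the MG132 stress response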
T1 sequence (P38532 whole entry): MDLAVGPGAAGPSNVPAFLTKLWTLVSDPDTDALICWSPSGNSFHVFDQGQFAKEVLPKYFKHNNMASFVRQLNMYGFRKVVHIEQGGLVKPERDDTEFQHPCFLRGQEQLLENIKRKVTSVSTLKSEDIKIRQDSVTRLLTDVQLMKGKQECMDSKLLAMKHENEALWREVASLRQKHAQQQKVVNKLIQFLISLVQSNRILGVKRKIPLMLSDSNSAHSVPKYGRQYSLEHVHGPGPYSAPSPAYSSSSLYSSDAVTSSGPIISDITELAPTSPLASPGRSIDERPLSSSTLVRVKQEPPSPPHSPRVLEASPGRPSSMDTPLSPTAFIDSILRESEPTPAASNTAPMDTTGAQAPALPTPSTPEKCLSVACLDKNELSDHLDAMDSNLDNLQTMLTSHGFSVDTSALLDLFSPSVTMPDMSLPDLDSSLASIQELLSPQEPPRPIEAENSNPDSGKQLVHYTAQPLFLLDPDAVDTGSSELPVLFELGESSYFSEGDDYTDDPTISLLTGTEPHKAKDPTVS

[8] = target: Mothers against decapentaplegic homolog 3 (Homo sapiens, UniProt P84022); assay: blockers of Smad3 complex formation in lysate – cell lysate, secondary confirmation, chemiluminescent ELISA, HEK293 lysate, dose response (AID 1058); type: functional
Chain of Mothers against decapentaplegic homolog 3 (P84022 whole entry): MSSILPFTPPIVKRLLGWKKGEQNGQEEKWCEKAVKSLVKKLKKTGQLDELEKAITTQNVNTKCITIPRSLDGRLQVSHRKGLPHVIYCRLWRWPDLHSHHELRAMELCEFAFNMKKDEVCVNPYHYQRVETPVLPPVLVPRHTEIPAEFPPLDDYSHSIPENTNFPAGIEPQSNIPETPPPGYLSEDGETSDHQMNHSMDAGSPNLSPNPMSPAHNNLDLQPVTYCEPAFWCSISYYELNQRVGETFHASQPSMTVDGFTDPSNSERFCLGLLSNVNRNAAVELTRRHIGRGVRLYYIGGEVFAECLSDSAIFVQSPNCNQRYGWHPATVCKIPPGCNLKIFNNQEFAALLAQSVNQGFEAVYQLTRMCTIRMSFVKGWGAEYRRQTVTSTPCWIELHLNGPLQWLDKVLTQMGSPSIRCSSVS

Chain of Neuropeptide Y receptor type 1 (P25929 whole entry): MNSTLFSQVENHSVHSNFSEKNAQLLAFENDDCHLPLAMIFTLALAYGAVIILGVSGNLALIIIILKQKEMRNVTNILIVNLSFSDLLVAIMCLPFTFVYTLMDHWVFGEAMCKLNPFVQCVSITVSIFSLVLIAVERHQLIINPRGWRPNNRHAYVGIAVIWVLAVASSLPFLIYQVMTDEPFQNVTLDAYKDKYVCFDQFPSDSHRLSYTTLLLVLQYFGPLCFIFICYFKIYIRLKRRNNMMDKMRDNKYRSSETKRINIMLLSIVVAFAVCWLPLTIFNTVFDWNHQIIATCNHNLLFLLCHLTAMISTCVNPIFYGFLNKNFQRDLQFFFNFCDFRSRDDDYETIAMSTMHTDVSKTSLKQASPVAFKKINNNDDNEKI
Chain of Induced myeloid leukemia cell differentiation protein Mcl-1 (Q07820 whole entry): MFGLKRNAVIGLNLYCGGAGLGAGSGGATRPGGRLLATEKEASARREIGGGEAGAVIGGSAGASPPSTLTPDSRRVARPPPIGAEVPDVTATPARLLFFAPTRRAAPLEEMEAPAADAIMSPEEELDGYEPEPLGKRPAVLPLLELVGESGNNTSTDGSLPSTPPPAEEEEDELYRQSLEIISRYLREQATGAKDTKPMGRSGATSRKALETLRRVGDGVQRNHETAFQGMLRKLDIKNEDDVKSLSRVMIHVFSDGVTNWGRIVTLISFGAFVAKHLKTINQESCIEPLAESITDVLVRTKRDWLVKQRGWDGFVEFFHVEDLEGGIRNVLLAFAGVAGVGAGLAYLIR
Chain of Neuropeptide Y receptor type 2 (P49146 whole entry): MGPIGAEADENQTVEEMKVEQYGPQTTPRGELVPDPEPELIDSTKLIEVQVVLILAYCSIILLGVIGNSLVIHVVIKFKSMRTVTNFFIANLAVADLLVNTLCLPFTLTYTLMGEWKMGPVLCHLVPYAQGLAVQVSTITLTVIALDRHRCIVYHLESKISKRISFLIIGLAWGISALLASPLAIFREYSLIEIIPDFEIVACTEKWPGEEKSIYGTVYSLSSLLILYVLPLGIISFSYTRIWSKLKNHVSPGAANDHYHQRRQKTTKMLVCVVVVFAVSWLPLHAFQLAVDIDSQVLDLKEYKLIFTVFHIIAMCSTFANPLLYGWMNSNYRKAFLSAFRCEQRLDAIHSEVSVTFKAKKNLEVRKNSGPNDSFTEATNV
Chain of NS3 (A3EZJ3 whole entry): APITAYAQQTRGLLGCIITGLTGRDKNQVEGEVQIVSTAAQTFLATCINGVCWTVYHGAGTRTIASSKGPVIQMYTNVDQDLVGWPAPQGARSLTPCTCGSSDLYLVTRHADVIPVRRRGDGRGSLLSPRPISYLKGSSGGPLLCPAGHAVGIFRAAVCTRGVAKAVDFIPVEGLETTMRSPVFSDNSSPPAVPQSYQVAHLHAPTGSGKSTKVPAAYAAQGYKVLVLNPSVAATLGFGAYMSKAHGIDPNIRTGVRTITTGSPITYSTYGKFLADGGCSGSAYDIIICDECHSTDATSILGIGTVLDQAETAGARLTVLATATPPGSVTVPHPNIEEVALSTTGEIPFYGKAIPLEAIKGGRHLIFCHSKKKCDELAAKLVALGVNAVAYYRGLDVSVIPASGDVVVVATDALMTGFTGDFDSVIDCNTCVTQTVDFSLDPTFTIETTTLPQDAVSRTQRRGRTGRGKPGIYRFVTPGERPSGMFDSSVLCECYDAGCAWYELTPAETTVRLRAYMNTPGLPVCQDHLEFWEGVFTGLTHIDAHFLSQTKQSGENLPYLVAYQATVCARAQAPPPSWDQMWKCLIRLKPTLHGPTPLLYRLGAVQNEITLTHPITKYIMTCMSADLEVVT

## CCN(CC)S(=O)(=O)c1ccc2ncc(C(=O)NCCC3=CCCCC3)c(O)c2c1
[1]
  EC50: 13.8 µM (not active)
[2]
  EC50: 10.1 µM (not active)
[3]
  CC50: > 40 µM (active)
[4]
  EC50: 13.3 µM (not active)

## COc1ccc(NC2=NC(=O)/C(=C\C=C\c3ccco3)S2)cc1
[5]
  IC50: 25.9 µM (not active)
[6]
  IC50: 3.02 µM (active)
[7]
  EC50: > 260 µM (inactive)

## O=C(O)c1cc2cc(O)ccc2[nH]1
[8]
  IC50: 1.77 µM (not active)
